Test [1] concerns the target Nonstructural protein 1 (Influenza A virus, UniProt Q194T2). The test is classed as functional, Influenza A virus (A/California/07/2009(H1N1)).
The nature of test [2]: HepG2 cell cytotoxicity, dose response, cytotoxicity control for Shn3 inhibitor project, CellTiter-Glo, cherry-picked (AID 624134). The test is classed as functional, cell-based.
Test [3] concerns the target T1, Streptokinase A (Streptococcus pyogenes serotype M1, UniProt P10520).
T1 sequence (P10520 whole entry): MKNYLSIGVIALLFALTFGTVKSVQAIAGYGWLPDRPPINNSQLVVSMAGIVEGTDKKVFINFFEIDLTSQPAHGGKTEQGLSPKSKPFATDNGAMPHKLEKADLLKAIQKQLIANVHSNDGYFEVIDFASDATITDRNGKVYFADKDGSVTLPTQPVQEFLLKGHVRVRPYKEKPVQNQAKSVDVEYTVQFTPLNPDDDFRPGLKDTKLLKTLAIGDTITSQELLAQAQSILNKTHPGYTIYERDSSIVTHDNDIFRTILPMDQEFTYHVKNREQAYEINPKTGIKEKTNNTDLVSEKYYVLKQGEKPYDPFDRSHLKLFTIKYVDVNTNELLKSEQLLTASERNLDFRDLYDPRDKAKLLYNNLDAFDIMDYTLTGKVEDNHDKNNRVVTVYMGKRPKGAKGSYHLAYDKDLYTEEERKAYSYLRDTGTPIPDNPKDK
Briefly: S. pyogenes streptokinase expression inhibitors, potency, dose response, plasminogen activation absorbance, OD405 (AID 1914).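 Note: secreted streptokinase activity via plasminogen activation per viability signal from cell pellet.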 Format: functional, Streptococcus pyogenes M1 GAS.

For test [4], the system named is Streptococcus. As to the kind of experiment: Group A Streptococcus viability loss, dose response, counter-screen for streptokinase expression inhibitor project, luminescence, BacTiterGlo (AID 1915).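 Note: potency for reduction of bacterial viability or growth.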 The test is classed as functional, organism-based. In general terms: The purpose of a counterscreen is to sort out artefacts and off-target activity.
Test [5] has as its target Photoreceptor-specific nuclear receptor (Homo sapiens, UniProt Q9Y5X4). Format: functional, cell-based.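 Note: CHO-S cells with Gal4-NCOR and VP16-NR2E3 two-hybrid luciferase reporter.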
Test [6] in a line: control 3'UTR Renilla luciferase suppression, dose response, counter-screen for Shn3 inhibitor project, cell-based, Clone20-Shn3RL, cherry-picked (AID 624133). The test is classed as functional.
The test system of test [7] is INS1. As to the kind of experiment: beta cell apoptosis inhibitors, cytokine rescue, dose response, luminescence, retest (AID 449756).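 Note: cell death triggered by IL-1 beta plus TNF-alpha plus IFN-gamma mixture; protective hits raise ATP signal compared with cytokine alone wells.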 Format: functional, cell-based. The following applies: Rattus norvegicus.
Test [8] is described as follows: Shn3 3'UTR reporter inhibitors, dose response, cell-based, Clone20 osteoblasts, firefly luciferase, cherry-picked (AID 624132).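 Note: firefly luciferase luminescence from reporter carrying the Shn3 3'UTR in osteoblasts.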 Format: functional.
Test [9] concerns Streptococcus sp. 'group A'. As to the kind of experiment: growth inhibition of control SK(-) GAS strain, dose response, counter-screen for streptokinase expression inhibitor project, luminescence, kanamycin, BacTiterGlo, confirmation (AID 1900). Format: functional, organism-based.
For test [10], the target named is 72 kDa type IV collagenase (Homo sapiens, UniProt P08253). As to the kind of experiment: Dose Response validation of uHTS RPN11 inhibitor hits using a MMP-2 Fluorescence assay. The test is classed as functional.
Sequence of 72 kDa type IV collagenase (P08253 whole entry): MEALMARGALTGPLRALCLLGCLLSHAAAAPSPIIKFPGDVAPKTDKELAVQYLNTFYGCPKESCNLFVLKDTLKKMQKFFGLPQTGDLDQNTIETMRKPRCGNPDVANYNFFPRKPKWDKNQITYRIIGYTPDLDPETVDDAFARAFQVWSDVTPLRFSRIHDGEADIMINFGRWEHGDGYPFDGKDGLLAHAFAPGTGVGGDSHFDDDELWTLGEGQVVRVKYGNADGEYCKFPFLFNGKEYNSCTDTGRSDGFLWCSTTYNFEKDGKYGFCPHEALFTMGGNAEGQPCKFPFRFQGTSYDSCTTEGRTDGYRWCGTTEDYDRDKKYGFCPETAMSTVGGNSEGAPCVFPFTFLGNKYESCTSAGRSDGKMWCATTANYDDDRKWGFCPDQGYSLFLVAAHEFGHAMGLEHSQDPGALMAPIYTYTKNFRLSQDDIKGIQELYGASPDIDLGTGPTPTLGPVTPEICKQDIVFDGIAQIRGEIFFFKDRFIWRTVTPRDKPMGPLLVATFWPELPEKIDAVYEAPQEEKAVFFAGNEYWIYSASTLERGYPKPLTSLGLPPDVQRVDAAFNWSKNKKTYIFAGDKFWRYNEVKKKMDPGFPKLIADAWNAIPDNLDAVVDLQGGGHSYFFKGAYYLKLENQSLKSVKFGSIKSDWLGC
Test [11] addresses T2, Small ubiquitin-related modifier 1 (Homo sapiens, UniProt P63165). Briefly: inhibitors of SUMO1 peptide binding, dose response, biochemical, fluorescence polarization, uHTS hits (AID 624382). The following applies: read-out: IC50_Mean. Format: functional.
For test [12], the target named is Prothrombin (Bos taurus, UniProt P00735). As to the kind of experiment: thrombin inhibition, dose response, biochemical, fluorescence polarization, uHTS hits (AID 602369). Format: functional. (In general: Polarisation of emitted light reports the rotation of a fluorescent probe.)
For test [13], the target named is T2, Small ubiquitin-related modifier 1. As to the kind of experiment: inhibitors of SUMO1 partner interactions, dose response, biochemical, FRET (AID 624383). The following applies: read-out: IC50_Mean. Format: functional.
In test [14] the target is T3, Low molecular weight phosphotyrosine protein phosphatase (Homo sapiens, UniProt P24666).
T3 sequence (P24666 whole entry): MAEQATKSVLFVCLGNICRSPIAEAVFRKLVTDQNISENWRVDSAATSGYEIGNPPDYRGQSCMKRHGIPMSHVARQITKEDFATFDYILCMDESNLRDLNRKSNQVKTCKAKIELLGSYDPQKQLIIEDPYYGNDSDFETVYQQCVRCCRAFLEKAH
Format: functional. The conditions noted are these: read-out: IC50_Mean.

Test [15] addresses T4, Tyrosine-protein phosphatase non-receptor type 22 (Homo sapiens, UniProt Q9Y2R2).
T4 sequence (Q9Y2R2 whole entry): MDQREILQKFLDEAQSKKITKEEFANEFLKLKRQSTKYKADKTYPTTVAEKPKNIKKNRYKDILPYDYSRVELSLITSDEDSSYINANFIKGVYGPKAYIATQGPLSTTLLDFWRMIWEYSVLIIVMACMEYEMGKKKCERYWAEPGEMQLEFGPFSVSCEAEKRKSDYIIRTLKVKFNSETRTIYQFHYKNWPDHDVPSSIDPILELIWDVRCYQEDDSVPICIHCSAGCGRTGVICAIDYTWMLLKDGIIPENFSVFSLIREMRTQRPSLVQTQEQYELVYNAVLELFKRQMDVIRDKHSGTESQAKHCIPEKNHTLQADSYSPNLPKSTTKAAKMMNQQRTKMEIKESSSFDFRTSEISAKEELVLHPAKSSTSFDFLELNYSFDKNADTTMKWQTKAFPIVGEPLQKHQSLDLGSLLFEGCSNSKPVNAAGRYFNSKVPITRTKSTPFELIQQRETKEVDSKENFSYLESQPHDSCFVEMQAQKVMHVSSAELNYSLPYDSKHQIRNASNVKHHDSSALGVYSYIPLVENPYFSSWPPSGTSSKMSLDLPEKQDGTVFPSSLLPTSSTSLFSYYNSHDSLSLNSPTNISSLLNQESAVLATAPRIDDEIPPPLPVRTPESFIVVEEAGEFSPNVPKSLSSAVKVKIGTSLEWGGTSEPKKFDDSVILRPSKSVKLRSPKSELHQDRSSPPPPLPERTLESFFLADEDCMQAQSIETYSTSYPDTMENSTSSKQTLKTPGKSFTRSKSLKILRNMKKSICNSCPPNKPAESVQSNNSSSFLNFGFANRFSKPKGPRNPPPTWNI
Briefly: LYP phosphatase inhibition for selectivity, dose response, selectivity assay for LMPTP inhibitor project, biochemical, fluorescence, LYP catalytic domain (AID 652006). Format: functional. The conditions noted are these: read-out: IC50_Mean.

Test [16] has as its target 26S proteasome non-ATPase regulatory subunit 14 (Homo sapiens, UniProt O00487). As to the kind of experiment: inhibition of proteasome subunit RPN11 – biochemical, fluorescence polarization, uHTS hits, confirmation (AID 602368). The test is classed as functional.
Test [17] concerns the target T3, Low molecular weight phosphotyrosine protein phosphatase. Format: functional. The following applies: read-out: IC50_Mean. This is another data set of the same source.
The nature of test [18]: cytotoxicity toward NIH3T3 fibroblasts, dose response, counter-screen, cell-based, ATP luminescence, mouse fibroblasts (AID 2010).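 Note: cells exposed to compound for about 90 hours before reading.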 The test is classed as functional.
The nature of test [19]: inhibitors of intracellular T. cruzi replication, confirmation, NIH3T3 host cells, beta-gal luminescence (AID 2044).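 Note: intracellular parasites grown in NIH/3T3 mouse fibroblasts as host cells; luminescent beta-galactosidase reporter signal from transgenic T. cruzi replicating inside host cells; inhibitors lower the luminescence signal.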 The test is classed as functional, cell-based.
Test [20] concerns the target ADP-ribosylation factor GTPase-activating protein 1 (Rattus norvegicus, UniProt Q62848). Briefly: Fluorescence polarization-based biochemical high throughput dose response screening assay to identify inhibitors of ADP-ribosylation factor GTPase activating protein 1 (ARFGAP1). Format: functional.

Activity calls are given as the source filed them.

We go through 3 molecules from ChEMBL document CHEMBL1201862, “PubChem BioAssay data set” (2004).

T2 sequence (P63165 whole entry): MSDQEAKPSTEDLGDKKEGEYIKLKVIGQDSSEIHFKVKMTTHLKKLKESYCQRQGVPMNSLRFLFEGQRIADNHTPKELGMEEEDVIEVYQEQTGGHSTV
Sequence of ADP-ribosylation factor GTPase-activating protein 1 (Q62848 whole entry): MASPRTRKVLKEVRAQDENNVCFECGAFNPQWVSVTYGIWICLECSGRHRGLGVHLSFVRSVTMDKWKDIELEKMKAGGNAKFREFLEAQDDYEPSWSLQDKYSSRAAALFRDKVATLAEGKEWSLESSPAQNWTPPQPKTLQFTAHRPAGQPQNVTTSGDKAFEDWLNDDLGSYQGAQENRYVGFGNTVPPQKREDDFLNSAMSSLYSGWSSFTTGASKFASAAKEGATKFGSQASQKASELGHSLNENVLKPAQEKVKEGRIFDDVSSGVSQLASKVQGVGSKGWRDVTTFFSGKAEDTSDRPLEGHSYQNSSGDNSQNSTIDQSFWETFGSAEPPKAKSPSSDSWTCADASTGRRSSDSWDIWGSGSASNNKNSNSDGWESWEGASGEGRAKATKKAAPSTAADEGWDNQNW
Sequence of Nonstructural protein 1 (Q194T2 whole entry): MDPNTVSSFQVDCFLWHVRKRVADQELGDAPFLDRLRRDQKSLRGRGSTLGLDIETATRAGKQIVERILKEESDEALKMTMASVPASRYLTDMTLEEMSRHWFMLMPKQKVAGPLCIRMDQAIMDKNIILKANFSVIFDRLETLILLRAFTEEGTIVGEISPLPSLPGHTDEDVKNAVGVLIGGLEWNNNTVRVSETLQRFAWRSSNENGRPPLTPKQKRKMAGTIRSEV
Sequence of Photoreceptor-specific nuclear receptor (Q9Y5X4 whole entry, the tested form may be a part): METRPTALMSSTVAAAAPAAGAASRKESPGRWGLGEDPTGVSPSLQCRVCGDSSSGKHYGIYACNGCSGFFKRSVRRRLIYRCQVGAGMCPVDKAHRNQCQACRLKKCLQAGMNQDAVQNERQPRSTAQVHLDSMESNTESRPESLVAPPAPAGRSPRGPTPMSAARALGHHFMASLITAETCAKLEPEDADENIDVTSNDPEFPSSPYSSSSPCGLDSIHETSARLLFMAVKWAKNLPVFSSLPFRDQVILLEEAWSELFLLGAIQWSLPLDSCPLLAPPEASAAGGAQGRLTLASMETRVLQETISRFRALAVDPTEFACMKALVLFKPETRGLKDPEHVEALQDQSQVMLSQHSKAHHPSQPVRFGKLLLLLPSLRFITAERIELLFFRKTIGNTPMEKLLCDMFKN
Sequence of 26S proteasome non-ATPase regulatory subunit 14 (O00487 whole entry): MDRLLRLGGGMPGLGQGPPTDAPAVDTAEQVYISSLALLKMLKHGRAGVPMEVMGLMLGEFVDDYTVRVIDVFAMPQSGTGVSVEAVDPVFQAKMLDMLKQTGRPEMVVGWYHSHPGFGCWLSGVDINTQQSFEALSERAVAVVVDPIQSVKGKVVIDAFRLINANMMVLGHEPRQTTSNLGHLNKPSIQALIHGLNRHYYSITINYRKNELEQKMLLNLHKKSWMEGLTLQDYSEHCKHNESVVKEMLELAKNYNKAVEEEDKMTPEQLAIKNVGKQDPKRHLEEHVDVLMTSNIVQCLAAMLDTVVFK

One may read the AC50 as the concentration giving half of the maximal activity seen. Usually EC50 stands for the concentration needed to bring the measured effect to its halfway point. Consider `CC(C)(C)Nc1nc(-c2ccccn2)nc2ccccc12`, for which the IC50 in test [1] is 12.2 µM (active); in [5], 3.88 µM (active). Further, the AC50 in test [2] was > 70 µM (inactive); in test [6], 1.42 µM (active); in test [7], 2.06 µM (active); in [8], 1.86 µM (active). The EC50 in [3] is > 150 µM (not active); in test [4], 5.93 µM (active); in [9] it was 2.48 µM (active).
For `C/C(=N\NC(=O)c1ccc(OC2OCCOC2Oc2ccc(C(=O)N/N=C(\C)c3ccncc3)cc2)cc1)c1ccncc1` (stereo not given), the IC50 was > 100 µM (inactive) in test [10]; > 66.6 µM (inactive) in test [11]; 41 µM (active) in test [12]; 8.52 µM (active) in test [13]; > 80 µM (inactive) in [14]; 13.6 µM (active) in [15]. Also, the IC50 was 9.62 µM (active) in [16] and 13.2 µM (active) in test [17].
`N#CCCn1cc(/C=N/NC(N)=S)c(-c2ccc(-c3ccccc3)cc2)n1`: the EC50 is 9.69 µM (active) in test [18] and 0.924 µM (active) in [19]. Further, in [20], the IC50 was 128 µM (inactive).
